{"source": "patent US10682386B2", "about": "“Compositions for prevention of adhesions and other barrier applications” (Arch Biosurgery, Inc., priority 2006, dated 2020)", "key": {"[1]": {"system": "liver, lobus sinister lateralis", "assay": "Liver cut, rostral to caudal, vessel of relatively low pressure, hemostasis", "assay_type": "in vivo, adult rat", "details": "1% peptide solution applied topically and in the cut", "text": "Profuse bleeding ensued. A 1% peptide solution (RADA16-1) (SEQ ID NO: 1) was applied to the cut and in its vicinity using a 27 gauge needle and 4 cc syringe. All bleeding stopped within 10 seconds. A series of pictures was obtained. […] After treating the site with 1% peptide solution (applied topically and in the cut), all bleeding stopped within 10 seconds. A clear area was observed between the two halves of the lobus sinister lateralis. This procedure was repeated several times with the same result."}, "liver": {"system": "liver", "assay": "4 mm liver punch biopsy, adhesions", "assay_type": "in vivo, adult rats", "details": "punch filled with 3%; survival 2 d, 7 d, 14 d, 6 w, 8 w", "procedure": "The liver of 18 adult rats was exposed under deep anesthesia, the upper right lobe was punched by a 4 mm punch, then the wound was treated with 3% NHS-1. Animals were allowed to survive 2 d, 7 d, 14 d, 6 w, and 8 w respectively, then the animals were anesthetized again and the punched lobe of liver was dissected and processed for H&E staining. In addition a set of controls were treated with either saline or cautery. 4 mm liver punch biopsy experiment with control and filling of punch with 3% RADA. All of the controls had adhesions on both surfaces while the treated had no adhesions. In the 2 week, 6 week and 8 week controls adhesions were cut away on the upper and lower surfaces. On all the 3% RADA treated cases there were no adhesions on with the upper or lower surface of the liver."}, "femoral artery": {"system": "femoral artery", "assay": "Femoral artery transection, hemostasis", "assay_type": "in vivo, adult rats", "procedure": "The sciatic nerve and the adjacent femoral artery were exposed in adult rats, and the femoral artery was transected. Twelve rats were treated by application of 20 μl of a 1% solution of RADA 16-I (SEQ ID NO: 1) peptide to the site of transection using a glass pipette attached to a syringe body, while controls were treated by applying cold saline to the site of transection. […] The saline control cases continued to bleed until the experiment was terminated at 110 seconds.\nA series of pictures was taken in an adult rat in which the femoral artery was transected. In the picture taken first, the sciatic nerve and the femoral artery are exposed. […] The assembled material can be suctioned off the site easily if desired."}, "spinotrapezius muscles": {"system": "spinotrapezius muscles", "assay": "Muscle trauma, cut in spinotrapezius muscle on the back, hemostasis", "assay_type": "in vivo, rat", "details": "1% peptide solution applied in deep cut, 1-2 cm incisions", "text": "(§1) The spinotrapezius muscles on the back of the rats were exposed and a deep cut was made in the muscle, after which 1% peptide solution (RADA16-I) (SEQ ID NO: 1) was applied in the cut. Within 10 seconds, all bleeding had stopped. With the application of iced saline alone, control animals continued to bleed after 20 seconds."}, "[2]": {"system": "branch of the superior sagittal sinus in the brains", "assay": "Transection of a branch of the superior sagittal sinus in the brain, hemostasis", "assay_type": "in vivo", "details": "hamsters; 20 μl of a 1% peptide solution at the site of the sinus branch transection; all cases", "procedure": "(§2) Animals were anesthetized with an i.p. injection of ketamine (80 mg/kg) and xylazine (8 mg/kg). All surgical procedures were conducted under an operating microscope. Twenty-two animals, including 10 adult hamsters and 12 young adult female Spraque-Dawley rats (200-250 g), were treated with either iced saline or 20 μl of a 1% peptide solution at the site of the sinus branch transection. The material was prepared by dissolving RADA 16-1 (n-RADARADARADARADA-c; SEQ ID NO: 1) peptide in sterile water, and the peptide-containing solution was applied to the injured tissue with a 31 gauge needle attached to a 2 cc syringe.\n(§3) The experiment was videotaped with a time stamp and was replayed one frame at a time to evaluate the length of time required for the peptide solution to form a gel, which effectively impeded bleeding. Hemostasis was assessed visually, and “complete hemostasis” was defined as the complete lack of movement of blood from the wound site."}, "[3]": {"system": "lobus sinistras laterialis of the liver", "assay": "Removal of ¼ of the liver lobe, topical treatment of the margin, hemostasis", "assay_type": "in vivo", "procedure": "In other experiments ¼ of the lobe in the lower right quadrant of the lobus sinistras laterialis was removed, and the margin was treated with a topical application of 2% peptide (RADA16-I) (SEQ ID NO: 1) to the site of injury. Bleeding stopped in less than 10 seconds."}, "[4]": {"system": "skin and subcutaneous tissue", "assay": "4 mm punch biopsy of skin and subcutaneous tissue, healing test", "assay_type": "in vivo", "procedure": "The regions from which the biopsies were taken were either treated by a single application of self-assembling peptide (RADA16-I) (SEQ ID NO: 1) solution or were left untreated. The wounds were left unbandaged. A series of pictures of a 4 mm punch biopsy healing test in which injured animals were treated with the self assembling peptide and compared to matching cases with no treatment illustrates the results. The wounds were photographed on day 0, day 1, day 4, and day 7. […] Treatment with the peptide appeared to speed healing by as much as 5 days in some cases."}, "[5]": {"system": "intestine at the level of the duodenum", "assay": "Perforation of the intestine at the level of the duodenum, leakage of gastric fluid", "assay_type": "in vivo, adult rat", "procedure": "An additional volume of 2% peptide solution was injected into the duodenum at the level of the injury. […] In the control cut at the level of the duodenum, the wall of the intestine inverted and gastric fluids continued to leak from the site of injury when left untreated."}, "superior sagittal sinus": {"system": "superior sagittal sinus", "assay": "Complete transection of the superior sagittal sinus, hemostasis", "assay_type": "in vivo", "details": "control animals that continued to bleed after 20 seconds", "text": "A higher concentration of peptide (e.g., approximately 3%-4%) was used in the latter experiment in order to achieve hemostasis. The three saline control cases continued to bleed after 20 seconds."}, "[6]": {"system": "muscle of the hind limb (porteocaudalis and musculus tibialis cranialis)", "assay": "Muscle trauma, hind limb muscle and limb wounds, hemostasis", "assay_type": "in vivo, rat", "text": "as §1, with “seconds. […] However when an artery or vein was transected 2% or higher material was needed to bring about hemostasis.[…]” for “seconds.”"}, "[7]": {"system": "liver, lobus sinister lateralis and a major branch of the portal vein", "assay": "Liver transverse cut with major branch of the portal vein, higher pressure, hemostasis", "assay_type": "in vivo, rat", "procedure": "A series of pictures illustrate the experiment. […] The cut was treated with 4% peptide solution applied topically and in the cut. All bleeding stopped within 10 seconds. […] Thus, application of 4% peptide solution brings about complete hemostasis in a high pressure bleeding environment in less than 10 seconds. […] This procedure was repeated several times with the same result."}, "[8]": {"system": "branch of the superior sagittal sinus in the brains", "assay": "Transection of a branch of the superior sagittal sinus in the brain, hemostasis", "assay_type": "in vivo, rats", "procedure": "as §2, §3\nDurations were measured from the start of application of peptide solution to the completion of hemostasis after transection of the veins leading to the sinus in the brains of adult rats. […] In the saline controls, cessation of bleeding was never achieved. The saline control experiment was terminated at the same time point in order to prevent the animals from bleeding to death."}}, "data": [{"substance": "n-RADARADARADARADA-c [RADA16-I]", "values": [{"measurement": "time until all bleeding stopped", "setting": "[1]", "value": "≤ 10", "unit": "s"}, {"measurement": "adhesions on the upper or lower surface of the liver", "setting": "liver", "value": "no adhesions"}, {"measurement": "time to hemostasis", "setting": "femoral artery; 20 μl of a 1% solution at the site of transection, twelve rats, all treated cases", "value": "less than 10 seconds"}, {"measurement": "time at which complete hemostasis was observed", "setting": "femoral artery; adult rat, series of pictures", "value": "about five"}, {"measurement": "hemostasis after replacement of the cold saline with the peptide solution", "setting": "femoral artery; control animals that bled until 110 seconds", "value": "almost immediate achievement of complete hemostasis"}, {"measurement": "time complete hemostasis was maintained", "setting": "femoral artery; duration of the test", "value": 1, "unit": "h"}, {"measurement": "time until all bleeding had stopped", "setting": "spinotrapezius muscles", "value": "≤ 10", "unit": "s"}, {"measurement": "time to complete hemostasis after application of the peptide solution", "setting": "[2]", "value": "≤ 10", "unit": "s"}, {"measurement": "hemostasis at the margin of the liver after the peptide was removed", "setting": "[3]; 2% peptide, removed one minute later", "value": "complete hemostasis was achieved"}, {"measurement": "time until bleeding stopped", "setting": "[3]; topical application of 2% peptide to the margin", "value": "less than 10 seconds"}, {"measurement": "shrinkage of the wound site versus untreated", "setting": "[4]; all cases", "value": "happened faster"}, {"measurement": "healing of treated wounds versus no treatment", "setting": "[4]; single application, contraction of the wound site as early as day 1", "value": "healed much faster"}, {"measurement": "speeding of healing", "setting": "[4]; single application, in some cases", "value": "≤ 5", "unit": "days"}, {"measurement": "progression of the intestinal wall inversion", "setting": "[5]; control cut treated 15 minutes after the injury", "value": "stopped the progression"}, {"measurement": "leakage from the injury site", "setting": "[5]; control cut treated with peptide solution 15 minutes after the injury", "value": "stopped all leakage"}, {"measurement": "leakage of gastric fluids from the intestine", "setting": "[5]; site treated with 2% peptide solution", "value": "all leakage of gastric fluids from the intestine stopped"}, {"measurement": "hemostasis after iced saline was removed and the peptide solution was applied", "setting": "superior sagittal sinus", "value": "complete hemostasis almost immediately"}, {"measurement": "hemostasis in limb wounds", "setting": "[6]; between 1% to 100% peptide applied", "value": "hemostasis was achieved in all cases"}, {"measurement": "concentration of material needed to bring about hemostasis", "setting": "[6]; when an artery or vein was transected", "value": "≥ 2", "unit": "%"}, {"measurement": "hemostasis", "setting": "[7]; 1% solution", "value": "partial cessation of bleeding"}, {"measurement": "hemostasis", "setting": "[7]; 2% peptide solution", "value": "complete hemostasis was also achieved"}, {"measurement": "hemostasis", "setting": "[7]; 3% peptide solution", "value": "complete hemostasis was also achieved"}, {"measurement": "bleeding ten minutes later", "setting": "[7]; 4% peptide solution", "value": "still no bleeding"}, {"measurement": "bleeding under physical stress (lower part of lobe pulled downward)", "setting": "[7]; 4% peptide solution", "value": "did not bleed"}, {"measurement": "hemostasis after excess peptide structure was wiped away", "setting": "[7]; 30 seconds after treatment", "value": "hemostasis was maintained"}, {"measurement": "hemostasis five seconds after the peptide solution was applied", "setting": "[8]; adult rat, one of the veins of the superior sagittal sinus transected, series of pictures", "value": "Complete hemostasis was achieved"}, {"measurement": "average duration from start of application of peptide solution to completion of hemostasis", "setting": "[8]; adult rats, transection of the veins leading to the sinus", "value": 8.3, "unit": "s"}, {"measurement": "time to complete hemostasis after application of the peptide solution", "setting": "[8]; rats, 20 μl of a 1% peptide solution at the site of the sinus branch transection, all cases", "value": "≤ 10", "unit": "s"}]}]}
